These results are taken from ChEMBL document CHEMBL5291721, “A preclinical secondary pharmacology resource illuminates target-adverse drug reaction associations of marketed drugs” (Nat Commun, 2023).

Where a SMILES comes first, the peptide text is derived from it.

One test concerns the target T1, Androgen receptor (Rattus norvegicus, UniProt P15207).
T1 sequence (P15207 whole entry): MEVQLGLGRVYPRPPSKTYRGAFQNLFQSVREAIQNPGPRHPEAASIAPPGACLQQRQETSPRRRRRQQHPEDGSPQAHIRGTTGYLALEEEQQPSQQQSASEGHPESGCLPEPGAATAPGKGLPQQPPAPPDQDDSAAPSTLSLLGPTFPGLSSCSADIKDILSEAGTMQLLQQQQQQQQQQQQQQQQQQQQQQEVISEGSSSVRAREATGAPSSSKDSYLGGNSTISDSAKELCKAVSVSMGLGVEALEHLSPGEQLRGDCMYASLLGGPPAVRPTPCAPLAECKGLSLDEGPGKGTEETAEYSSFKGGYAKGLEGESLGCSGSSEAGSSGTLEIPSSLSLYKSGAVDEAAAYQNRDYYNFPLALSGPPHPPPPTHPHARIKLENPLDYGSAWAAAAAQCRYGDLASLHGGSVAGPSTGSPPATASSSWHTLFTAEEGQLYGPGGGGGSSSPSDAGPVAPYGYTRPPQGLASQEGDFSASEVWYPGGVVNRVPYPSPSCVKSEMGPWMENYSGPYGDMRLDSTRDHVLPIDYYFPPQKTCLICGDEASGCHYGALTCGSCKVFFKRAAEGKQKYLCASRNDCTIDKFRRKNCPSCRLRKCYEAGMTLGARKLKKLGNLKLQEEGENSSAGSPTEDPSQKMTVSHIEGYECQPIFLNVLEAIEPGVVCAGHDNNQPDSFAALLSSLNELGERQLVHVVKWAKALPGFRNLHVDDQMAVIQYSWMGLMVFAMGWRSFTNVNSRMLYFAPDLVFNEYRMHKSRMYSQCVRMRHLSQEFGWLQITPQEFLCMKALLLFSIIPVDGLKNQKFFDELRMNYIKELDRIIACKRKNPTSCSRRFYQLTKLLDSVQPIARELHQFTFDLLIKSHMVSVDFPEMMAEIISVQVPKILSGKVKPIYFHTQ
Format: functional.

For test [1], the target named is 5-hydroxytryptamine receptor 2B (Homo sapiens, UniProt P41595).
Sequence of 5-hydroxytryptamine receptor 2B (P41595 whole entry): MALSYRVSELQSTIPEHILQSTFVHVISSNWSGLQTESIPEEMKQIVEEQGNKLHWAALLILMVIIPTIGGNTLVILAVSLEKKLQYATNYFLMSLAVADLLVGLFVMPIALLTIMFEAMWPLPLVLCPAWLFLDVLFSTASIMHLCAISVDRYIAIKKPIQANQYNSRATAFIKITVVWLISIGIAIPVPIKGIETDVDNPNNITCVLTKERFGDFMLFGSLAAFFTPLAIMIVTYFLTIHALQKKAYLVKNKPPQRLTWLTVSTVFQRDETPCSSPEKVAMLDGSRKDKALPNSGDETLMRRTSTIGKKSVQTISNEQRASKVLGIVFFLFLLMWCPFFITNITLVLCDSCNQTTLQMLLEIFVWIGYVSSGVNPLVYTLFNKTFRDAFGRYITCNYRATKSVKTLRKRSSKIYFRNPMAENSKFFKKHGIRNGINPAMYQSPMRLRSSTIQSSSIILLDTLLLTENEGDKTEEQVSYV
Test [2] addresses T2, Gamma-aminobutyric acid receptor subunit alpha-1/alpha-2/beta-2/gamma-2 (Homo sapiens, UniProt P14867+P18507+P47869+P47870). It is filed as functional, cell-based.
For test [3], the target named is T2, Gamma-aminobutyric acid receptor subunit alpha-1/alpha-2/beta-2/gamma-2. It is filed as functional, cell-based. This is another data set of the same source.
Note: assay procedure not described here.

T2 sequence (P14867 whole entry): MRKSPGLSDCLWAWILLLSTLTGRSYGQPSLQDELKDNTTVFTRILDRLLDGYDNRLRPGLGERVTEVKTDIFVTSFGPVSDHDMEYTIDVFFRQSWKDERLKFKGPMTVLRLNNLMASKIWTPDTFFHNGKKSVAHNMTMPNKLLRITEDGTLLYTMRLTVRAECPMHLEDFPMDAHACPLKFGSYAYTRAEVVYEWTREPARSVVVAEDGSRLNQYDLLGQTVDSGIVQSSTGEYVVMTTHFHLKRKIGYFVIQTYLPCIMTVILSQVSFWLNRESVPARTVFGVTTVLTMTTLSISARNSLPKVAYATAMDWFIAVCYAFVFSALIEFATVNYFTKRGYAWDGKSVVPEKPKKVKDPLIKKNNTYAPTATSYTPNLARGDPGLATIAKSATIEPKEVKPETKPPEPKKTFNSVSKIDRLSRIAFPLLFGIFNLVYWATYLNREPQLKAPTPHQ
T2 sequence (P47870 whole entry): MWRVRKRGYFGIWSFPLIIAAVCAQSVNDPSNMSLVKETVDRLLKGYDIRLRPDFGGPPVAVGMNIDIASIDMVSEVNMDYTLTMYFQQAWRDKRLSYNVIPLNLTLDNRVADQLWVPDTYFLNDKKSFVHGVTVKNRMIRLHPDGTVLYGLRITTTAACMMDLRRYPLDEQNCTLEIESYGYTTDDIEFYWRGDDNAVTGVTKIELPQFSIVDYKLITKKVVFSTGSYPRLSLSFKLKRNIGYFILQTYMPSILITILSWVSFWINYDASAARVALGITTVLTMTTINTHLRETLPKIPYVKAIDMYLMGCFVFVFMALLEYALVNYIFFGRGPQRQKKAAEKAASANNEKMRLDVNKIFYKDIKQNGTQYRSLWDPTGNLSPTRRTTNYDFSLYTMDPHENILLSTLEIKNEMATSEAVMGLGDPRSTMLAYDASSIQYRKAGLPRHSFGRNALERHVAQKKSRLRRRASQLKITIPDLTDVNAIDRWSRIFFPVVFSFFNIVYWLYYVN
T2 sequence (P18507 whole entry): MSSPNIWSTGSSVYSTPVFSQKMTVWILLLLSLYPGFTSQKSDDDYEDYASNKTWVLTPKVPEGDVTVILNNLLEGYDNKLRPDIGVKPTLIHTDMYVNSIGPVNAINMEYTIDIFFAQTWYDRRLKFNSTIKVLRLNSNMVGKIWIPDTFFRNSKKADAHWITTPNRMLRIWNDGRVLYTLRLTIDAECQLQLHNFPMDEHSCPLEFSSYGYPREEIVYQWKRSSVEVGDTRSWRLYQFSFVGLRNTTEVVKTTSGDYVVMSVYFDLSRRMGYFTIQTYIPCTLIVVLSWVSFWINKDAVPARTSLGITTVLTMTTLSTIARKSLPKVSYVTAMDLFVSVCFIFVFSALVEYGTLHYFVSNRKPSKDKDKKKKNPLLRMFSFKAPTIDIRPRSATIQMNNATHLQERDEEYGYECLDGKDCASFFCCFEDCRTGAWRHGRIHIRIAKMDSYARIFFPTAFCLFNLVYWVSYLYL
T2 sequence (P47869 whole entry): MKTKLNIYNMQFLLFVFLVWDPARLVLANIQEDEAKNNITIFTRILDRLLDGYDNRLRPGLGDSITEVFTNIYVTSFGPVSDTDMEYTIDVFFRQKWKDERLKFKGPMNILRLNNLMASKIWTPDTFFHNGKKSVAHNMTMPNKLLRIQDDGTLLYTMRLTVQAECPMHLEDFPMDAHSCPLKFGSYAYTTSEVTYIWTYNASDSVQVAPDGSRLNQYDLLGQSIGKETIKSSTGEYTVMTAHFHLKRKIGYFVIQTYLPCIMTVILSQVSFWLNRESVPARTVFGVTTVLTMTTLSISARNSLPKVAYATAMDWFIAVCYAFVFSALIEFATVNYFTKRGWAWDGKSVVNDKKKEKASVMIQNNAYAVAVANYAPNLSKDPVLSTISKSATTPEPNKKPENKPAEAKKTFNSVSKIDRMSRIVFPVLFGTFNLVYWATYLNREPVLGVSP

As usually defined, the AC50 is the concentration giving half of the maximal activity seen. Regarding `CCCCC[C@H](O)CC[C@@H]1[C@H]2Cc3cccc(OCC(=O)O)c3C[C@H]2C[C@H]1O` [TREPROSTINIL], the AC50 at Androgen receptor was above 30 µM.

`CC(=O)Oc1cccc2c1C(=O)c1c(OC(C)=O)cc(C(=O)O)cc1C2=O` [DIACEREIN]: the AC50 (on Androgen receptor; in test [1]) was above 30 µM each time.

Take `NS(=O)(=O)c1ccc(N2CCCCS2(=O)=O)cc1`: the AC50 (on Androgen receptor; in test [2]; in test [3]) was above 30 µM each time.

Compound `CCCO[C@H]1[C@@H]([C@@H](COCc2ccc(Cl)cc2)OCc2ccc(Cl)cc2)OC(OCC)[C@@H]1O` (stereo partly drawn) [CLOBENOSIDE] yielded an AC50 on Androgen receptor above 30 µM.

Regarding `COc1ccc(-n2nc(C(N)=O)c3c2C(=O)N(c2ccc(N4CCCCC4=O)cc2)CC3)cc1` [APIXABAN], the AC50 (on Androgen receptor; in test [2]; in test [3]) was above 30 µM in each case.

Turning to `CCCCCCCC(=O)CC[C@@H]1[C@@H](C/C=C\CCCC(=O)O)[C@@H](O)C[C@H]1O` [UNOPROSTONE], the AC50 (at Androgen receptor; in test [2]; in test [3]) was above 30 µM in each case.

In the case of `CCC(=O)O[C@H](CC(=O)O)C[N+](C)(C)C` [LEVOCARNITINE PROPIONATE], the AC50 (on Androgen receptor; in test [2]; in test [3]) was above 30 µM each time.

Compound `O=C(O)c1ccc2nc(-c3cc(Cl)cc(Cl)c3)oc2c1` showed an AC50 on Androgen receptor above 30 µM.

In turn, `CN1CCCN=C1/C=C/c1cccc(O)c1` [OXANTEL] came in with an AC50 at Androgen receptor of 26 µM.

As to `COC(=O)c1ccc2c(c1)NC(=O)/C2=C(\Nc1ccc(N(C)C(=O)CN2CCN(C)CC2)cc1)c1ccccc1` [NINTEDANIB], the AC50 (at Androgen receptor; in test [2]; in test [3]) was above 30 µM each time.

At Androgen receptor, `CN(C)CCOCC(=O)NC12CC3CC(CC(C3)C1)C2` [TROMANTADINE] came in with an AC50 above 30 µM.

Take `O=C(O)c1nn(Cc2ccc(Cl)cc2Cl)c2ccccc12` [LONIDAMINE]: the AC50 (on Androgen receptor; in test [3]) was above 30 µM in each case.

`Cc1ccc(S(=O)(=O)NC(=O)N[C@H]2[C@H]3CC[C@@](C)([C@H]2O)C3(C)C)cc1` [GLIBORNURIDE] had an AC50 on Androgen receptor above 30 µM.

As for `CCCCOC(=O)C(=O)Nc1cccc(-c2nnn[nH]2)c1` [TAZANOLAST], the AC50 at Androgen receptor is above 30 µM.

On to `C[C@H](N)C(=O)N[C@@H](CCC(N)=O)C(=O)O` [ALANYL GLUTAMINE] (H-Ala-Gln-OH), for which, on Androgen receptor, the AC50 is above 30 µM.

In turn, `CC(=O)OCC(=O)[C@@]1(O)CC[C@H]2[C@@H]3CCC4=CC(=O)CC[C@]4(C)[C@@]3(F)[C@@H](O)C[C@@]21C` [FLUDROCORTISONE ACETATE] returned an AC50 at Androgen receptor above 30 µM.
